Assay results from PubChem BioAssay AID2060907 (Molecular Pharmacology Branch, DTP, NCI, 2025).

Tested on: 388556-164-R-J1-PDC complex spheroid viability
Assay: Anticancer human tumor 388556-164-R-J1-PDC patient-derived colon adenocarcinoma cell line growth inhibition [RAS]
Conditions: for IC50: curve of first compound; for viability, T/C: stronger effect = lower value
Text: RAS pathway inhibitors in Combinations in Complex Spheroids
A high-throughput screen of multi-cell type tumor spheroids was designed to identify active combinations of RAS pathway inhibitors and targeted small molecules. Complex spheroids include a stromal component modeled by human endothelial cells (HUVEC) and fibroblasts modeled by human mesenchymal stem cells (MSCs). The concentration ranges selected for each drug and investigational agent were based upon clinically achievable concentrations if the clinical Cmax of the agent was known.
Compounds. The drugs and investigational agents: abemaciclib (NSC768073), cobimetinib (NSC768068), divarasib (GDC6063, NSC841802), docetaxel (NSC628503), GDC-1971 (RLY-1971, NSC841576), gemcitabine (NSC613327), inavolisib (NSC800729), ipatasertib (NSC767898), KB-0742 (NSC834161), MRTX-1133 (NSC836407), osimertinib (NSC779217), RMC-4630 (NSC839698), RMC-6236 (NSC851965), RMC-6291 (NSC852671), Ro-3306 (NSC812927), sapanisertib (NSC764658), SN-38 (NSC673596), staurosporine (NSC755774), SY5609 (NSC837396), and tovorafenib (DAY101, NSC766906), were obtained from the National Cancer Institute (NCI) Developmental Therapeutics Program Chemical Repository. The FDA-approved anticancer drug set is available from the NCI Developmental Therapeutics Program. […] The stock solutions were prepared in dimethyl sulfoxide (DMSO, Sigma-Aldrich, St. Louis, MO, cat. D2650) at 800-fold the tested concentration and stored at -70 degrees C prior to their use. All drugs and investigational agents were tested over a range starting from a high concentration at or near the clinical Cmax and decreasing in half-log increments. If the clinical Cmax for an agent had not been determined, the highest concentration tested was 10 microM.
Cell Culture. All cells were maintained in an incubator at 37 degrees C and 5% CO2 with 95% humidity. The PDC lines were cultured according to standard operating procedures established by the NCI PDMR. All PDCs were thawed and cultured in Matrigel-coated flasks prepared with a working solution of 1X Ham's F-12 nutrient mix, without supplementation (Invitrogen, Waltham, MA, cat. 11765054), 100 U/mL penicillin-streptomycin (Invitrogen, cat. 15140122), and 2.5% Matrigel (Corning Inc., Corning, NY, cat. 354248) for the first three passages. The 362531-283-R-J2-PDC and 782815-120-R-J1-PDC lines were cultured in 6C/Colon 1B media, which includes advanced DMEM/F-12 (Thermo Fisher Scientific, cat. 12634028), 10 mM HEPES (Thermo Fisher Scientific, cat. 15630080), 1X GlutaMAX supplement (Thermo Fisher Scientific, cat. 35050061), 0.1 mg/mL primocin (InvivoGen, San Diego, CA, cat. ant-pm-2), 10% defined fetal bovine serum, heat inactivated (HyClone Laboratories Inc., Logan, UT, cat. SH30070.03HI), 50% L-WRN conditioned media (ATCC, cat. CRL-3276), 1.25 mM N-Acetyl-L-cysteine (Sigma-Aldrich, cat. A9165), 10 mM nicotinamide (Sigma-Aldrich, cat. N0636), 1X B-27 supplement (Thermo Fisher Scientific, cat. 17504044), 1X N-2 supplement (Thermo Fisher Scientific, cat. 17502048), 50 ng/mL human EGF (Thermo Fisher Scientific, cat. PHG0311), and 10 microM Y-27632 dihydrochloride (Tocris Bioscience, cat. 1254). The K12877-001-R-J1-PDC line was cultured in 6I media, which includes all 6C/Colon 1B media plus 10 ng/mL human FGF-10 (PeproTech, cat. 100-26), 1 ng/mL human FGF-2 (PeproTech, cat. 100-18B), 1 µM prostaglandin E2 (Tocris Bioscience, cat. 2296), […] hydrocortisone (Sigma-Aldrich, cat. H4001), and […] bovine insulin (Sigma-Aldrich, cat. I6634). The K86415-001-R-J1-PDC line was cultured in 6D media, which includes all 6C/Colon 1B media components minus the L-WRN conditioned media. The 485176-168-R4-J1-PDC was cultured in PANC media, which includes all 6C/Colon 1B media plus 100 ng/mL human FGF-10 (PeproTech, cat. 100-26), 500 nM SB-431542 (Selleckchem, cat. S1067), and 10 nM gastrin (Tocris Bioscience, cat. 3006). […]
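Note: spheroids exposed to compound for 7 days before readout.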
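Throughout, for viability, T/C: 100% = DMSO vehicle control luminescence.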

`CCc1c2c(nc3ccc(O)cc13)-c1cc3c(c(=O)n1C2)COC(=O)[C@]3(O)CC` + CCn1c(-c2cc(N3CCN(C)CC3)cnc2C(C)OC)c2c3cc(ccc31)-c1csc(n1)CC(NC(=O)C1CC1C)C(=O)N1CCCC(N1)C(=O)OCC(C)(C)C2 was tested, and the IC50 (second compound 0.000949 µM) was 46.6 nM, the IC50 (second compound 0.003 µM) was 28.1 nM and the IC50 (second compound 0.00949 µM) was 19.6 nM. The IC50 (second compound 0.03 µM) was 7.33 nM, the IC50 (second compound 0.0949 µM) was under 0.949 nM and the IC50 (second compound 0.3 µM) was under 0.949 nM. For the same compound, the viability, T/C (second compound 0.000949 µM, first compound 0.000949 µM) was 90.3%, the viability, T/C (second compound 0.000949 µM, first compound 0.003 µM) was 89.5% and the viability, T/C (second compound 0.000949 µM, first compound 0.00949 µM) was 66.3%. For the same compound, the viability, T/C (second compound 0.000949 µM, first compound 0.03 µM) was 56%, the viability, T/C (second compound 0.000949 µM, first compound 0.0949 µM) was 42.1% and the viability, T/C (second compound 0.000949 µM, first compound 0.3 µM) was 23.5%. The viability, T/C (second compound 0.003 µM, first compound 0.000949 µM) was 89.9%, the viability, T/C (second compound 0.003 µM, first compound 0.003 µM) was 83.6% and the viability, T/C (second compound 0.003 µM, first compound 0.00949 µM) was 67.5%. For the same compound, the viability, T/C (second compound 0.003 µM, first compound 0.03 µM) was 46.3%, the viability, T/C (second compound 0.003 µM, first compound 0.0949 µM) was 36.4% and the viability, T/C (second compound 0.003 µM, first compound 0.3 µM) was 21.8%. For the same compound, the viability, T/C (second compound 0.00949 µM, first compound 0.000949 µM) was 82.2%, the viability, T/C (second compound 0.00949 µM, first compound 0.003 µM) was 78.4% and the viability, T/C (second compound 0.00949 µM, first compound 0.00949 µM) was 55.7%. The viability, T/C (second compound 0.00949 µM, first compound 0.03 µM) was 41.8%, the viability, T/C (second compound 0.00949 µM, first compound 0.0949 µM) was 36.5% and the viability, T/C (second compound 0.00949 µM, first compound 0.3 µM) was 18.7%. For the same compound, the viability, T/C (second compound 0.03 µM, first compound 0.000949 µM) was 58.2%, the viability, T/C (second compound 0.03 µM, first compound 0.003 µM) was 55.5% and the viability, T/C (second compound 0.03 µM, first compound 0.00949 µM) was 50.5%. The viability, T/C (second compound 0.03 µM, first compound 0.03 µM) was 37.8%, the viability, T/C (second compound 0.03 µM, first compound 0.0949 µM) was 30.2% and the viability, T/C (second compound 0.03 µM, first compound 0.3 µM) was 16.6%. The viability, T/C (second compound 0.0949 µM, first compound 0.000949 µM) was 44.3%, the viability, T/C (second compound 0.0949 µM, first compound 0.003 µM) was 39.1% and the viability, T/C (second compound 0.0949 µM, first compound 0.00949 µM) was 48.9%. For the same compound, the viability, T/C (second compound 0.0949 µM, first compound 0.03 µM) was 30.1%, the viability, T/C (second compound 0.0949 µM, first compound 0.0949 µM) was 25.9% and the viability, T/C (second compound 0.0949 µM, first compound 0.3 µM) was 14.3%. It also gave a viability, T/C (second compound 0.3 µM, first compound 0.000949 µM) of 32.4%, a viability, T/C (second compound 0.3 µM, first compound 0.003 µM) of 31.5% and a viability, T/C (second compound 0.3 µM, first compound 0.00949 µM) of 28.2%. It also gave a viability, T/C (second compound 0.3 µM, first compound 0.03 µM) of 30.1%, a viability, T/C (second compound 0.3 µM, first compound 0.0949 µM) of 21.2% and a viability, T/C (second compound 0.3 µM, first compound 0.3 µM) of 11.5%.
